pIC50: −log10 of the molar value.
Target: Toll-like receptor 4 (Homo sapiens, UniProt O00206)
Experiment: Inhibition of induction of NF-kappaB by LPS in HEK293 cells co-transfected with TLR4, CD14 and MD2

Chain of Toll-like receptor 4 (O00206 whole entry): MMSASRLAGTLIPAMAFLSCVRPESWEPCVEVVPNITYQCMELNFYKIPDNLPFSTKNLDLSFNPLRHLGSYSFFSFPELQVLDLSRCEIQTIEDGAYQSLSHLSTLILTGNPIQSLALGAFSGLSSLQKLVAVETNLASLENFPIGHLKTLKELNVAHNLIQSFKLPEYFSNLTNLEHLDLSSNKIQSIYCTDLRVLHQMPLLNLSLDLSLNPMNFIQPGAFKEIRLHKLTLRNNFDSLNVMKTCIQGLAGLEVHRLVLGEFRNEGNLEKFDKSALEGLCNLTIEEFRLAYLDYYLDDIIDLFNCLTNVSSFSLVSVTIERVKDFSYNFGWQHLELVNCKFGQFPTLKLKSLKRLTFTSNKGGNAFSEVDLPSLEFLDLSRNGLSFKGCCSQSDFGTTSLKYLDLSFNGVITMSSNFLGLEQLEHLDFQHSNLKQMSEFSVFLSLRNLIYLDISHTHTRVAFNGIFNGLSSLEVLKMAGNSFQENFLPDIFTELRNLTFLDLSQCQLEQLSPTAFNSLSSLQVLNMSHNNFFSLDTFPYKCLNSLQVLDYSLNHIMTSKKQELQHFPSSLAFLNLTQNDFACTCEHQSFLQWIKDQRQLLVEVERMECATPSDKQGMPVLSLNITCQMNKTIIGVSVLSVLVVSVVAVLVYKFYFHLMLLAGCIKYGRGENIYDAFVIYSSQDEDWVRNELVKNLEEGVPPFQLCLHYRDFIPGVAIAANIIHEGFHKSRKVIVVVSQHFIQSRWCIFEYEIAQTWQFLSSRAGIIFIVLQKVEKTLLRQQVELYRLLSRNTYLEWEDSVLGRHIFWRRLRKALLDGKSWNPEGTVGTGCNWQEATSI

In order of rising pIC50:
1. CCCCCCCCCCCCCCOc1c(C=NN=C(N)N)ccc(C=NN=C(N)N)c1OCCCCCCCCCCCCCC  3.72
2. COc1c(C=NN=C(N)N)ccc(C=NN=C(N)N)c1OC  3.76
3. NC(N)=NN=Cc1ccc(C=NN=C(N)N)cc1  3.79
4. C=CCOc1c(C=NN=C(N)N)ccc(C=NN=C(N)N)c1OCC=C  4.21
5. NC(N)=NN=Cc1ccc(C=NN=C(N)N)c(O)c1O  4.23
6. CCOc1c(C=NN=C(N)N)ccc(C=NN=C(N)N)c1OCC  4.45
7. CCCOc1c(C=NN=C(N)N)ccc(C=NN=C(N)N)c1OCCC  4.56
8. CCCCCOc1c(C=NN=C(N)N)ccc(C=NN=C(N)N)c1OCCCCC  4.98
9. CCCCOc1c(C=NN=C(N)N)ccc(C=NN=C(N)N)c1OCCCC  5.03
10. CCCCCCOc1c(C=NN=C(N)N)ccc(C=NN=C(N)N)c1OCCCCCC  5.21
11. CCCCCCCCOc1c(C=NN=C(N)N)ccc(C=NN=C(N)N)c1OCCCCCCCC  5.35

Reference: BindingDB's records for doi:10.1016/j.bmcl.2005.11.059 (University of Kansas, 2006)
